Converted amounts (≈) assume the structure as drawn. “And” between values parts separate entries of the source, which are not always exact repeats. Equal entries are not always repeated. Where two headings read alike, the source gives them in different places.
What was measured:
A2780 = assay: Inhibition of Cancer Cell Growth as Measured by Cell Number (Sulforhodamine B); type: cell-based; conditions: Homo sapiens, 48 hours exposure
Experimental: (§1) Human tumor cell lines were plated in 96-well plates (250 µl/well, 1-6 x 10^4 cells/ml) in RPMI 1640 medium, containing 5% FBS (Fetal Bovine Serum). […] After 48 hours exposure to test compounds, cells were fixed with trichloroacetic acid, and stained with Sulforhodamine B. After washing with trichloroacetic acid, bound dye was solubilized in 10 mM Tris base and optical density was determined using plate reader. Under conditions of the assay the optical density is proportional to the number of cells in the well. […] The test procedure is described in details by Philip Skehan et. al, J.Natl. Canc. Inst., 82, 1107-1112 (1990). […] Information about some of the cell lines used in these test procedures is available from the American Type Tissue Collection: Cell Lines and Hybridomas, 1994 Reference Guide, 8th Edition.

DDP = assay: as above; type: cell-based; conditions: Homo sapiens; 48 hours exposure
Experimental: as §1

[1] = target: T1, Kinase insert Domain containing Receptor (KDR: the catalytic domain of the VEGF receptor) (Homo sapiens, UniProt P35968); assay: Inhibition of Kinase insert Domain containing Receptor (KDR), radioactive phosphorylation of Glu:Tyr copolymer; type: biochemical; conditions: IC50, substrate phosphorylation
T1 construct: KDR: the catalytic domain of the VEGF receptor
T1 sequence (P35968 834-1162 limits assumed): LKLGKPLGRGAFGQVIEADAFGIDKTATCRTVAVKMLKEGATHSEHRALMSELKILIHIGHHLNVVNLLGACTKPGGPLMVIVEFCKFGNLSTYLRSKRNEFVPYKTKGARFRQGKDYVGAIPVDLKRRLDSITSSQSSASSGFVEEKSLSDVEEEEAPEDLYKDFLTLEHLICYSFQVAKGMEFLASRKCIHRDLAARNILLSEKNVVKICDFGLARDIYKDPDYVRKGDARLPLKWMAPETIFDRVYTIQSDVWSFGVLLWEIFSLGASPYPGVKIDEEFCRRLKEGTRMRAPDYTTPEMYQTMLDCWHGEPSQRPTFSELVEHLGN
In short: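 KDR catalytic domain phosphorylates poly(Glu:Tyr 4:1) with Mg++ and sodium vanadate at pH 7.2, started by ATP plus 32P- or 33P-ATP tracer. Acid-insoluble radioactivity quantifies substrate phosphorylation. Repeat entries per compound are separate runs.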

SK-BR3 = assay: Inhibition of Cancer Cell Growth as Measured by Cell Number (Sulforhodamine B); type: cell-based, Human; conditions: Homo sapiens, SK-BR-3, 48 h, 48 hours exposure
Experimental: as §1

MDA-MB-435 = assay: as above; type: cell-based, Human; conditions: Homo sapiens, MDA-MB-435, 48 h, 48 hours exposure
Experimental: as §1

A431 = assay: as above; type: cell-based, Human; conditions: Homo sapiens, A-431, 48 h, 48 hours exposure
Experimental: as §1

SW620 = assay: as above; type: cell-based, Human; conditions: Homo sapiens, SW-620, 48 h, 48 hours exposure
Experimental: as §1

[2] = system: Human Colon Carcinoma SW620; assay: In Vivo Inhibition of the Growth of Human Colon Carcinoma SW620 in mice; conditions: for S/T = No. Survivors/No. Treated on Day +21 post tumor staging / %T/C Day 7 / %T/C Day 14 / Relative Tumor Growth Day 14 / %T/C Day 21 / Relative Tumor Growth Day 21 / Relative Tumor Growth Day 7: days 1 through 20; for tumor growth was inhibited by: 30 mg/kg i.p. during days 1-20
Experimental: A unit of 7 X 10^6 cells were injected SC into mice. […] Control animals received vehicle only. Tumor mass was determined every 7 days [(length X width^2)/2] for 28 days post staging.

[3] = target: Recombinant human MEK 1 (MAPKK) / recombinant human ERK2 (MAPK) (Mek-Erk) (Homo sapiens, UniProt P28482+Q02750); assay: Mitogen Activated Protein Kinase (MAPK) assay, two component coupled Mek-Erk test; type: biochemical
Chain of Recombinant human MEK 1 (MAPKK) / recombinant human ERK2 (MAPK) (Mek-Erk) (P28482 2-360): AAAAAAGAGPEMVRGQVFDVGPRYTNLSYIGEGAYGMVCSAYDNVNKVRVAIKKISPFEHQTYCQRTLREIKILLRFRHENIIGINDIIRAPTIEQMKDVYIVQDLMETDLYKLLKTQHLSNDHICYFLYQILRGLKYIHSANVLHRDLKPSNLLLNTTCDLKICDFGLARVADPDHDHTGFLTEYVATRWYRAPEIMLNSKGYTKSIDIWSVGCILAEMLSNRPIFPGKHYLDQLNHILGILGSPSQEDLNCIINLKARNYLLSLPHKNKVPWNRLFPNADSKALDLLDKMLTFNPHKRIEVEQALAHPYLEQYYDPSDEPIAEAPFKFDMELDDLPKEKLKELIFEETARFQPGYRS
Chain of Recombinant human MEK 1 (MAPKK) / recombinant human ERK2 (MAPK) (Mek-Erk) (Q02750 whole entry): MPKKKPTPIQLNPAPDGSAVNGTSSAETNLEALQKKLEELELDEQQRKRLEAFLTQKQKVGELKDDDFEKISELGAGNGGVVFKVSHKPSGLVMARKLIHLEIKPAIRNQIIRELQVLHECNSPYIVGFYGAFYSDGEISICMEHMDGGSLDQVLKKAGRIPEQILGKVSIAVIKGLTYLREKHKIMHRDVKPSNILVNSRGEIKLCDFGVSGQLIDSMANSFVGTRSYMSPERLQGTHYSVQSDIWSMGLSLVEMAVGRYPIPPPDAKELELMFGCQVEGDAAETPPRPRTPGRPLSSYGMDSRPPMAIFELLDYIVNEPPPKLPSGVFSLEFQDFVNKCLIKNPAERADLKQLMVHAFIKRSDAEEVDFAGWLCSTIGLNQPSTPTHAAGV
Experimental: To evaluate inhibitors of the MAP (mitogen activated protein) kinase a two component coupled standard pharmacological test procedure, which measures phosphorylation of a serine/threonine residue in an appropriate sequence in the substrate in the presence and absence of a putative inhibitor, was used. Recombinant human MEK 1 (MAPKK) was first used to activate recombinant human ERK2 (MAPK) and the activated MAPK (ERK) was incubated with substrate (MBP peptide or MYC peptide) in the presence of ATP, Mg^+2 and radiolabeled ^33P ATP. The phosphorylated peptide was captured on a P 81 phosphocellulose filter (paper filter or embedded in microtiter plate) washed and counted by scintillation methods.
The peptide substrates used in the assay are MBP, peptide substrate ([sequence]), or synthetic Myc substrate, ([sequence]•5 TFA. The recombinant enzymes used were prepared as GST fusion proteins of human ERK 2 and human MEK 1. Inhibitor samples were prepared as 10X stocks in 10% DMSO and an appropriate aliquot was used to deliver either 10 ug/ml for a single point screening dose or 100, 10, 1, and 0.1 uM final concentration for a dose response curve. Final DMSO concentrations were less than or equal to 1%.
The reaction was run as follows in 50 mM Tris kinase buffer, pH 7.4 in a reaction volume of 50 ul. The appropriate volume of kinase buffer and inhibitor sample was added to the tube. Appropriate dilution of enzyme was delivered to give 2-5 ug recombinant MAPK (Erk ) per tube. The inhibitor was incubated with MAPK (Erk) for 30 min at 0° C. Recombinant Mek (MAPKK) ( 0.5-2.5 ug) or fully activated Mek (0.05-0.1 units) was added to activate the Erk and incubated for 30 min at 30° C. Then substrate and gamma ^33P ATP was were added to give a final concentration of 0.5- 1 mM MBPP or 250-500 uM Myc; 0.2-0.5 uCi gamma P 33 ATP/tube; 50 µM ATP final concentration. Samples were incubated at 30°C for 30 minutes and the reaction was stopped by adding 25 µl of ice cold 10 %TCA .After samples were chilled on ice for 30 min, 20 µl of sample was transferred onto P 81 phosphocellulose filter paper or appropriate MTP with embedded P 81 filter. Filter papers or MTP were washed 2 times with a large volume of 1% acetic acid, then 2 times with water. The filters or MTP were briefly air dried before addition of scintillant and samples were counted in the appropriate scintillation counter set up for reading ^33P isotope.
The raw data was captured as cpm. Sample replicates were averaged and corrected for background count. Mean cpm data was tabulated by group and % inhibition by a test compound was calculated as (corrected cpm control- corrected. cpm sample/control) X 100 = % inhibition.

[4] = target: Epithelial Cell Kinase (ECK) (Homo sapiens, UniProt P29317); assay: Inhibition of Epithelial Cell Kinase (ECK), immobilized biotinylated peptide, HRP anti-phosphotyrosine readout; type: biochemical; conditions: IC50, substrate phosphorylation
Chain of Epithelial Cell Kinase (ECK) (P29317 24-976, species assumed): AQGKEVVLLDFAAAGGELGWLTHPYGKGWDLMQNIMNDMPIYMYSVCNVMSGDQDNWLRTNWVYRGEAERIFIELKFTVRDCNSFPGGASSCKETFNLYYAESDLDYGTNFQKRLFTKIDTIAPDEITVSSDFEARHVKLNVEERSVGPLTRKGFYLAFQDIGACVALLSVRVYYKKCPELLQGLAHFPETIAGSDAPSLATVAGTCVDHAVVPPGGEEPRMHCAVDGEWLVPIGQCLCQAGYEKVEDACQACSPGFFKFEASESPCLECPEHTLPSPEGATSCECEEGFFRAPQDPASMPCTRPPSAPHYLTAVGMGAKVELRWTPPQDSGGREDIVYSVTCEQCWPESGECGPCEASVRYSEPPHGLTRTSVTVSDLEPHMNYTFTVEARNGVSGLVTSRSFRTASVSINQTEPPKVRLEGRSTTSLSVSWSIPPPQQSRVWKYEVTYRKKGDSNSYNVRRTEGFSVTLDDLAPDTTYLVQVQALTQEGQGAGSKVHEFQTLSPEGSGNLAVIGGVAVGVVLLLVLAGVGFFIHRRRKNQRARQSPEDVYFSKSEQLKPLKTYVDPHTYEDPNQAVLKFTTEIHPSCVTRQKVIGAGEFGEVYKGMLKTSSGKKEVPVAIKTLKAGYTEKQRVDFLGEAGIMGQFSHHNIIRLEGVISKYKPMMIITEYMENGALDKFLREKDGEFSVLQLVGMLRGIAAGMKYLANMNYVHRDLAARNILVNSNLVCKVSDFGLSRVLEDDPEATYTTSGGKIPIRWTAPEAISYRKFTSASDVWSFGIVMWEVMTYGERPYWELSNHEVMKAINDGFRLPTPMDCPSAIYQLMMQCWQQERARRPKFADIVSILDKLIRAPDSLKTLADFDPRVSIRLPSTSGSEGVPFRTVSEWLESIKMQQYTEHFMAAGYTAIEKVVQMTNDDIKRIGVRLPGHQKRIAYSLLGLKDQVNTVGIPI
In short: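 Biotinylated peptide substrate immobilized on neutravidin plates, reacted with ECK, test drug, Mg++ and sodium vanadate at pH 7.2; ATP added to start phosphorylation. After washing, phosphopeptide detected with HRP-conjugated anti-phosphotyrosine antibody, HRP activity reflecting substrate phosphorylation. Repeat entries are separate tests of the same compound.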

3T3 = assay: Inhibition of Cancer Cell Growth as Measured by Cell Number (Sulforhodamine B); type: cell-based; conditions: Mus musculus, NIH3T3; 48 hours exposure
Experimental: as §1

3T3/c-erbb2 = assay: as above; type: cell-based; conditions: 48 hours exposure
Experimental: as §1

[5] = target: T2, epidermal growth factor receptor kinase (EGF-R Kinase, recombinant enzyme; His-tagged cytoplasmic domain of EGFR) (Homo sapiens, UniProt P00533); assay: Inhibition of Epidermal Growth Factor Receptor Kinase (EGF-R) using recombinant enzyme, RR-SRC peptide phosphorylation, 33P-ATP; type: biochemical; conditions: for inhibition at 0.5 µM: read-out: %Inh @ 0.5 µM; for IC50: recombinant enzyme, 90 min at room temperature
T2 construct: EGFR cDNA encoding amino acids 645 - 1186 preceded by Met-Ala-(His)6; Met-Ala-(His)6 (N); made in house; host or cells: Sf9 insect cells, recombinant baculovirus vHcEGFR52
T2 sequence (P00533 669-1210): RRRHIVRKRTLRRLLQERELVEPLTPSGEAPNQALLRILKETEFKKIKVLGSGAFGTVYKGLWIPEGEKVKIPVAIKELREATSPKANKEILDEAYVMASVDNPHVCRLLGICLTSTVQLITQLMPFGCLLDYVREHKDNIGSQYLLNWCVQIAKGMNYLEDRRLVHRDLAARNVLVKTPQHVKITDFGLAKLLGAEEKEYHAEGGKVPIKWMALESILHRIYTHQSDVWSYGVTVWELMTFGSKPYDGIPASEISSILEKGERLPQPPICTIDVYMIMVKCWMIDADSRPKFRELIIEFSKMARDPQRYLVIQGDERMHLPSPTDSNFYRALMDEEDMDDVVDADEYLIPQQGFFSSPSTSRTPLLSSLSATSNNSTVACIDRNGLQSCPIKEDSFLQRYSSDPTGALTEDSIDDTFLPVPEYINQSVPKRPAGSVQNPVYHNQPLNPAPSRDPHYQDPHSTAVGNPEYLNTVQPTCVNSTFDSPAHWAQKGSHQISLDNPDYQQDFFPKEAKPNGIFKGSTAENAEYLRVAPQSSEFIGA
In short: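 His-tagged EGFR cytoplasmic domain (aa 645–1186, baculovirus/Sf9) preincubated with compound 10 min on ice, then RR-SRC peptide (80 µM final) and γ-33P-ATP added. Reaction run 90 min at room temperature; peptide-bound 33P counted on P81 filters, background-corrected. IC50 from dose-response of ≥3 concentrations.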

CCOc1cc2ncc(C#N)c(Nc3ccc4cn[nH]c4c3)c2cc1OCC [Example 99, 6,7-Diethoxy-4-(1H-indazol-6-ylamino)-quinoline-3-carbonitrile]
IC50 (A2780): 0.032 µg/mL (≈ 0.0857 µM)
IC50 (DDP): 0.036 µg/mL (≈ 0.0964 µM)
IC50 [1]: 21.4 µM
IC50 (SK-BR3): 0.016 µg/mL (≈ 0.0428 µM)
IC50 (MDA-MB-435): 0.02 µg/mL (≈ 0.0536 µM)
IC50 (A431): 0.025 µg/mL (≈ 0.0669 µM)
IC50 (SW620): 0.033 µg/mL (≈ 0.0884 µM)
S/T = No. Survivors/No. Treated on Day +21 post tumor staging ([2]; 3 mg/kg/dose IP): 5/5
%T/C Day 7 ([2]; 3 mg/kg/dose IP): 93%
%T/C Day 14 ([2]; 3 mg/kg/dose IP): 108%
Relative Tumor Growth Day 14 ([2]; 3 mg/kg/dose IP): 12.53
%T/C Day 21 ([2]; 3 mg/kg/dose IP): 147%
Relative Tumor Growth Day 21 ([2]; 3 mg/kg/dose IP): 16.47
S/T = No. Survivors/No. Treated on Day +21 post tumor staging ([2]; 10 mg/kg/dose IP): 5/5
%T/C Day 7 ([2]; 10 mg/kg/dose IP): 90%
Relative Tumor Growth Day 7 ([2]; 10 mg/kg/dose IP): 3.69
%T/C Day 14 ([2]; 10 mg/kg/dose IP): 68%
Relative Tumor Growth Day 14 ([2]; 10 mg/kg/dose IP): 7.88
%T/C Day 21 ([2]; 10 mg/kg/dose IP): 87%
Relative Tumor Growth Day 21 ([2]; 10 mg/kg/dose IP): 9.75
tumor growth was inhibited by ([2]; day 7): 56%
tumor growth was inhibited by ([2]; day 14): 67%
tumor growth was inhibited by ([2]; day 21): 60%
S/T = No. Survivors/No. Treated on Day +21 post tumor staging ([2]; 30 mg/kg/dose IP): 4/5
%T/C Day 7 ([2]; 30 mg/kg/dose IP): 44%
Relative Tumor Growth Day 7 ([2]; 30 mg/kg/dose IP): 1.81
%T/C Day 14 ([2]; 30 mg/kg/dose IP): 33%
Relative Tumor Growth Day 14 ([2]; 30 mg/kg/dose IP): 3.85
%T/C Day 21 ([2]; 30 mg/kg/dose IP): 40%
Relative Tumor Growth Day 21 ([2]; 30 mg/kg/dose IP): 4.44

CCOc1cc2ncc(C#N)c(Nc3ccc4c(C)cc(=O)oc4c3)c2cc1OCC [Example 100, 6,7-Diethoxy-4-(4-methyl-2-oxo-2H-chromen-7-ylamino)-quinoline-3-carbonitrile]
IC50 ([3]; read-out: Mek-Erk): 3.5 µM
IC50 (A2780): 0.27 µg/mL (≈ 0.65 µM)
IC50 (DDP): 0.249 µg/mL (≈ 0.599 µM)
IC50 [1]: > 72.3 µM
IC50 (SK-BR3): 0.429 µg/mL (≈ 1.03 µM)
IC50 (MDA-MB-435): 0.067 µg/mL (≈ 0.161 µM)
IC50 (A431): 0.369 µg/mL (≈ 0.888 µM)
IC50 (SW620): 0.325 µg/mL (≈ 0.782 µM)
IC50 [4]: > 48.2 µM

COc1cc2ncc(C#N)c(Nc3ccc4cn[nH]c4c3)c2cc1OC [Example 102, 6,7-Dimethoxy-4-(1H-indazol-6-ylamino)-quinoline-3-carbonitrile]
IC50 (A2780): 1.49 µg/mL (≈ 4.32 µM)
IC50 (DDP): 3.05 µg/mL (≈ 8.84 µM)
IC50 [1]: 14.1 µM
IC50 (SK-BR3): 0.78 µg/mL (≈ 2.26 µM)
IC50 (MDA-MB-435): 0.49 µg/mL (≈ 1.42 µM)
IC50 (A431): 1.31 µg/mL (≈ 3.79 µM)
IC50 (SW620): 2.18 µg/mL (≈ 6.31 µM)
IC50 [4]: > 56.4 µM

CCOc1cc2ncc(C#N)c(Nc3ccc4[nH]nnc4c3)c2cc1OCC [Example 103, 4-(1H-Benzotriazol-5-ylamino)-6,7-diethoxy-quinoline-3-carbonitrile]
IC50 (A2780): 2.39 µg/mL (≈ 6.39 µM)
IC50 (DDP): 2.69 µg/mL (≈ 7.18 µM)
IC50 (SK-BR3): 0.767 µg/mL (≈ 2.05 µM)
IC50 (MDA-MB-435): 0.309 µg/mL (≈ 0.825 µM)
IC50 (A431): 1.61 µg/mL (≈ 4.3 µM)
IC50 (SW620): 2.64 µg/mL (≈ 7.04 µM)
IC50 [4]: > 53.4 µM

CCOc1cc2ncc(C#N)c(Nc3ccc4c(c3)C(=O)NC4=O)c2cc1OCC [Example 104, 4-(1,3-Dioxo-2,3-dihydro-1H-isoindol-5-ylamino)-6,7-diethoxy-quinoline-3-carbonitrile]
IC50 ([3]; read-out: Mek-Erk): 35 µM
IC50 (A2780): 0.044 µg/mL (≈ 0.109 µM)
IC50 (DDP): 0.107 µg/mL (≈ 0.266 µM)
IC50 [1]: > 74.6 µM
IC50 (SK-BR3): 0.034 µg/mL (≈ 0.0845 µM)
IC50 (MDA-MB-435): 0.021 µg/mL (≈ 0.0522 µM)
IC50 (A431): 0.049 µg/mL (≈ 0.122 µM)
IC50 (SW620): 0.207 µg/mL (≈ 0.514 µM)
IC50 [4]: > 49.7 µM

CCOc1cc2ncc(C#N)c(Nc3ccc4c(c3)C(=O)OC4)c2cc1OCC [Example 111, 6,7-Diethoxy-4-(3-oxo-1,3-dihydro-isobenzofuran-5-ylamino)-quinoline-3-carbonitrile]
IC50 ([3]; read-out: Mek-Erk µM): > 100 µM
IC50 (3T3): > 5 µg/mL
IC50 (3T3/c-erbb2): 3.3 µg/mL (≈ 8.48 µM)
IC50 [1]: > 77 µM
IC50 (SK-BR3): > 5 µg/mL
IC50 (MDA-MB-435): 3.4 µg/mL (≈ 8.74 µM)
IC50 (A431): > 5 µg/mL
IC50 (SW620): 1.56 µg/mL (≈ 4.02 µM)
IC50 [4]: > 51.4 µM
inhibition at 0.5 µM [5]: 10%
IC50 [5]: > 1 µM

CCOc1cc2ncc(C#N)c(Nc3ccc4c(c3)S(=O)(=O)C=C4)c2cc1OCC [Example 112, 4-(1,1-Dioxo-1H-benzo[b]thiophen-6-ylamino)-6,7-diethoxy-quinoline-3-carbonitrile]
IC50 ([3]; read-out: Mek-Erk): > 100 µM
IC50 (3T3): 0.392 µg/mL (≈ 0.93 µM)
IC50 (3T3/c-erbb2): 0.251 µg/mL (≈ 0.596 µM)
IC50 [1]: > 71.2 µM
IC50 (SK-BR3): 0.336 µg/mL (≈ 0.797 µM)
IC50 (MDA-MB-435): 0.0033 µg/mL (≈ 0.00783 µM)
IC50 (A431): 0.257 µg/mL (≈ 0.61 µM)
IC50 (SW620): 0.146 µg/mL (≈ 0.346 µM)
IC50 [4]: > 47.5 µM

CCOc1cc2ncc(C#N)c(Nc3ccc4cn[nH]c4c3)c2cc1OC [Example 115, 7-Ethoxy-4-(indazol-6-ylamino)-6-methoxy-quinoline-3-carbonitrile]
IC50 ([3]; read-out: Mek-Erk): 25 µM
IC50 (3T3): 0.344 µg/mL (≈ 0.957 µM)
IC50 (3T3/c-erbb2): 0.0267 µg/mL (≈ 0.0743 µM)
IC50 [1]: 5.56 µM and > 2.78 µM
IC50 (SK-BR3): 0.022 µg/mL (≈ 0.0612 µM)
IC50 (MDA-MB-435): 0.0359 µg/mL (≈ 0.0999 µM)
IC50 (A431): 0.0368 µg/mL (≈ 0.102 µM)
IC50 (SW620): 0.0212 µg/mL (≈ 0.059 µM)
IC50 [4]: > 27.8 µM
inhibition at 0.5 µM [5]: 49%
IC50 [5]: > 0.5 µM

CCOc1cc2c(Nc3ccc4cn[nH]c4c3)c(C#N)cnc2cc1OC [Example 126, 6-Ethoxy-4-(1H-indazol-6-ylamino)-7-methoxyquinoline-3-carbonitrile]
IC50 ([3]; read-out: Mek-Erk): > 100 µM
IC50 (3T3): 3.22 µg/mL (≈ 8.96 µM)
IC50 (3T3/c-erbb2): 4.8 µg/mL (≈ 13.4 µM)
IC50 [1]: 8.36 µM and > 2.79 µM
IC50 (SK-BR3): 2.09 µg/mL (≈ 5.83 µM)
IC50 (MDA-MB-435): 2.63 µg/mL (≈ 7.31 µM)
IC50 (A431): 0.786 µg/mL (≈ 2.19 µM)
IC50 (SW620): 4.31 µg/mL (≈ 12 µM)
IC50 [4]: > 27.9 µM
IC50 [5]: 0.45 µM

CCOc1cc2ncc(C#N)c(Nc3ccc4c(c3)C(=O)NCC(=O)N4C)c2cc1OCC [Example 127, 6,7-Diethoxy-4-(1-methyl-2,5-dioxo-2,3,4,5-tetrahydro-1H-benzo[e][1,4]diazepin-7-ylamino)-quinoline-3-carbonitrile]
IC50 ([3]; read-out: Mek-Erk): > 100 µM
IC50 (3T3): > 5 µg/mL
IC50 (3T3/c-erbb2): > 5 µg/mL
IC50 [1]: > 67.3 µM
IC50 (SK-BR3): > 5 µg/mL
IC50 (MDA-MB-435): > 5 µg/mL
IC50 (A431): > 5 µg/mL
IC50 (SW620): > 5 µg/mL
IC50 [4]: > 44.9 µM
inhibition at 0.5 µM [5]: 25%
IC50 [5]: > 1 µM
